One series addresses T1, ID02 (Homo sapiens, UniProt Q6ZQW0).
T1 sequence (Q6ZQW0 1-407): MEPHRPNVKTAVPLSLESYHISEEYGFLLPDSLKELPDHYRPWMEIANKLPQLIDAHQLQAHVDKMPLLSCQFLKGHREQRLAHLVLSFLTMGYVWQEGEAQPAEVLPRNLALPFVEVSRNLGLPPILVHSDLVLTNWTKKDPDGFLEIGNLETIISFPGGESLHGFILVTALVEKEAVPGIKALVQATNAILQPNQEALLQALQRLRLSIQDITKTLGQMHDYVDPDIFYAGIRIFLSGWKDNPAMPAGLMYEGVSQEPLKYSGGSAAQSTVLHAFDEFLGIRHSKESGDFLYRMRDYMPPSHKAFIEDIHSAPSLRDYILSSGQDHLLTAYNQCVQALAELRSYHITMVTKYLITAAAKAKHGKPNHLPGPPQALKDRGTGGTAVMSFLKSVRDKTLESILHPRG
The following applies: D isomer; cited from earlier work.

For series [1] the following is noted: in vivo.
In the next series the target is KIR2DL3 (Homo sapiens, UniProt P10321+P43628). The settings on record: cited from earlier work.

Results on four compounds are retold here after US11534478B2, “Compositions and methods for treating cancer” (Biokine Therapeutics Ltd., priority 2015, dated 2022).

Where a SMILES comes first, the peptide text is derived from it. Bridges are numbered along the chain shown (N, C = ends). [ ]: non-standard residue; d: D form. The star is where a group is joined. 2Nal = N[C@@H](Cc1ccc2ccccc2c1)C(=O)O; Benzoyl(4-F) = O=C(c1ccc(F)cc1)*; Cit = NC(=O)NCCC[C@H](N)C(=O)O

KIR2DL3, sequence (P43628 22-341): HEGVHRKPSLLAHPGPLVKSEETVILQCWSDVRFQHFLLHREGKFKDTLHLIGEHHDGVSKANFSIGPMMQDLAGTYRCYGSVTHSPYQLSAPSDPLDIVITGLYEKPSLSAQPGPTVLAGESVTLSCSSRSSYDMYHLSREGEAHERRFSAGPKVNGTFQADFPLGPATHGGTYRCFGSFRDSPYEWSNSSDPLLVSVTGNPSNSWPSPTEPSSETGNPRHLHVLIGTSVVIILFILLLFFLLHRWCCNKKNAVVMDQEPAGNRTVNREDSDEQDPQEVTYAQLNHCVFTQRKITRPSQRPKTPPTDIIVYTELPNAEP
KIR2DL3, sequence (P10321 25-366): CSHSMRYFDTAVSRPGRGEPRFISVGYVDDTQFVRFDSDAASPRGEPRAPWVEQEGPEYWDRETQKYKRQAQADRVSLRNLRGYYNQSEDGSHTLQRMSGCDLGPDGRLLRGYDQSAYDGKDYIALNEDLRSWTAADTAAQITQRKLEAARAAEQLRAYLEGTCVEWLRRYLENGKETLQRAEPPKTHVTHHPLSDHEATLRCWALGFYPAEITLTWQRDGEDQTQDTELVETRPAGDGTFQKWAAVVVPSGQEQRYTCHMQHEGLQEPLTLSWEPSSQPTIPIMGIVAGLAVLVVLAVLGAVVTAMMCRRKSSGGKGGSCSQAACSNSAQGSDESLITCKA
KIR2DL3, sequence (P61769 21-119 partner): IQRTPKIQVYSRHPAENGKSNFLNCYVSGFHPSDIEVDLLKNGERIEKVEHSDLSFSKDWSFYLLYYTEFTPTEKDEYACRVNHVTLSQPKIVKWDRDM

Consider `Cn1cc(C[C@H](N)C(=O)O)c2ccccc21` [Analog 1-MT, 1-methyl tryptophan], for which the “specificity for ID02” value at ID02 is recorded as “more specific for ID02”.
Turning to `N=C(N)NCCC[C@H](NC(=O)[C@@H]1CSSC[C@H](NC(=O)[C@H](Cc2ccc3ccccc3c2)NC(=O)[C@H](CCCNC(=N)N)NC(=O)[C@H](CCCNC(=N)N)NC(=O)c2ccc(F)cc2)C(=O)N[C@@H](Cc2ccc(O)cc2)C(=O)N[C@@H](CCCNC(N)=O)C(=O)N[C@@H](CCCCN)C(=O)N[C@H](CCCCN)C(=O)N2CCC[C@H]2C(=O)N[C@@H](Cc2ccc(O)cc2)C(=O)N[C@@H](CCCNC(=N)N)C(=O)N[C@@H](CCCNC(N)=O)C(=O)N1)C(N)=O` [BL-8040, 4F-benzoyl-Arg-Arg-Nal-Cys-Tyr-Cit-Lys-DLys-Pro-Tyr-Arg-Cit-Cys-Arg-NH2] ({Benzoyl(4-F)}-RR[2Nal]CY[Cit]K[dK]PYR[Cit]CR-NH2; disulfide 4-13 (inferred)), the safety and tolerability entry in series [1] is “safe and well tolerated”.
Regarding VAPWSNDYL, the “inhibition of KIR2DL3” value with KIR2DL3 is given as “inhibitors of KIR2DL3”.
As for VAPWNDAL, the “inhibition of KIR2DL3” value in the series with KIR2DL3 is listed as “inhibitors of KIR2DL3”.
